Earlier results, collected in patent publication US10064856B2, “Pharmaceutical compositions” (LOCL PHARMA, INC., priority 2008, dated 2018).

Details: more than about 0.6 to 2.0 gm, typically more than about 0.6 gm

O=S(=O)([O-])[O-].[Zn+2] [Zinc sulfate, zinc sulfate]
amount ingested that can induce emesis: more than 0.6 gm
